According to US11357779B2 (G1 Therapeutics, Inc., priority 2018, dated 2022):
“Also recorded” adds a separate entry of the source.

Tests used:
[1] = Stability study under thermal stress, 60° C. for 7 days; format: physicochemical
Method: Forms A, B, and D were stored in an oven maintained at 60° C. for 7 days.

BT474 tumor = assay: Murine HER2+ ER+ CBX model, tumor growth and survival; format: in vivo; conditions: BT474 tumor-containing mice; Compound I 50 mg/kg by mouth once a day for 56 days
Method: Mice containing a BT474 tumor were treated with vehicle, Compound I (50 mg/kg by mouth once a day for 56 days), lapatinib+trastuzumab, or Compound I+lapatinib+trastuzumab.

With `CC(C)N1CCN(c2ccc(Nc3ncc4cc5n(c4n3)C3(CCCCC3)CNC5=O)nc2)CC1` [Form B] the “XRPD pattern after thermal stress” value [1] was “stable; also recorded: No change in the XRPD pattern; also recorded: remained unchanged”.

With `CC(C)N1CCN(c2ccc(Nc3ncc4cc5n(c4n3)C3(CCCCC3)CNC5=O)nc2)CC1` [Compound I, 2′-((5-(4-isopropylpiperazin-1-yl)pyridin-2-yl)amino)-7′,8′-dihydro-6′H-spiro[cyclohexane-1,9′-pyrazino[1′,2′:1,5]pyrrolo[2,3-d]pyrimidin]-6′-one] the “Median OS” value (BT474 tumor) was 25 days.
